{
  "source": "patent US20150031655A1",
  "about": "“COMBINATION OF LIVER X RECEPTOR MODULATOR AND ESTROGEN RECEPTOR MODULATOR FOR THE TREATMENT OF AGE-RELATED DISEASES” (UNIVERSITY OF NORTH DAKOTA, priority 2011, published 2015)",
  "key": {"[1]": {"target": "T1, ERα (Homo sapiens, UniProt P03372)", "T1 construct": "endogenous in cells; host or cells: SH-SY5Y human neuroblastoma cells", "T1 sequence (P03372 1-595)": "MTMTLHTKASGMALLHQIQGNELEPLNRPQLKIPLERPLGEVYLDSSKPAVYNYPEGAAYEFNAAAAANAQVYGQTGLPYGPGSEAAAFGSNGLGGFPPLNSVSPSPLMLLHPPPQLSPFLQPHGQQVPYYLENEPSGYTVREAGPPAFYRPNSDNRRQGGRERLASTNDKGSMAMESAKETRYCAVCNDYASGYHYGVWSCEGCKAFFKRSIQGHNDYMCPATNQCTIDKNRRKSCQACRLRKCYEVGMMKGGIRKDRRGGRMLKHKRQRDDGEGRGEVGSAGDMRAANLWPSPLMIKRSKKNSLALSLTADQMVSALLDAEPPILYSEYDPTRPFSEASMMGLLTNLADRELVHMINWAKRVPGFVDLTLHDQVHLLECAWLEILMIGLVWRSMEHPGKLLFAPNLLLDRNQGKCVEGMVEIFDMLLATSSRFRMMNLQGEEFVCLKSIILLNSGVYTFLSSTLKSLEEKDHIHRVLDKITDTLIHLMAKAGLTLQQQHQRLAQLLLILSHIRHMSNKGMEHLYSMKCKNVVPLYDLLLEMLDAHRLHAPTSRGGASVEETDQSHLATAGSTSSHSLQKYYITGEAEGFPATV", "experiment": "Western blot of ERα levels in the nucleus (nuclear translocation), SH-SY5Y cells", "format": "cell-based", "conditions": "24 h, treatment alone vs control", "method": "(§1) Human neuroblastoma SH-SY5Y cells were grown in DMEM/F12 medium containing 10% fetal bovine serum (FBS) and 1% antibiotic/antimycotic mix. Cells were maintained at 37° C. in a saturated humidity atmosphere containing 95% air and 5% CO2."}, "[2]": {"target": "T1, ERα", "experiment": "ChIP, ERα binding to the ERE half site in the TH promoter", "format": "cell-based", "conditions": "SH-SY5Y, treatment alone vs control", "method": "as §1\nChIP analysis was performed to evaluate the extent of ERα/ERβ and LXRα/LXRβ binding to the DNA elements in the TH promoter and α-synuclein promoter regions respectively using “SimpleChIP™ Enzymatic Chromatic IP kit” from Cell Signaling (Boston, Mass.).\nBriefly, cells from each treatment group (3×10^6 cells) were washed with PBS, trypsinized, centrifuged at 5000 g. The pellet containing the cells was further washed with PBS and cross-linked using 37% formaldehyde for 15 min followed by the addition of glycine solution to cease the cross-linking reaction.\nThe cells were washed with 4× volumes of 1×PBS and centrifuged at ˜220 g for 5 min. The pellet was resuspended and incubated for 10 min in 5 ml of tissue lysis buffer containing DTT and protease and phosphatase inhibitors. The subsequent steps to isolate the cross-linked chromatin were performed according to the manufacturer's protocol.\nThe cross-linked chromatin from each sample was apportioned into four equal parts."}},
  "data": [
    {"smiles": "C[C@@H](CO)CCC[C@@H](C)[C@H]1CC[C@H]2[C@@H]3CC=C4C[C@@H](O)CC[C@]4(C)[C@H]3CC[C@]12C", "note": "[27-OHC, 27-hydroxycholesterol]", "values": [
      {"measurement": "nuclear translocation / nuclear levels of ERα", "setting": "[1]", "result": "decrease"},
      {"measurement": "ERα binding to the ERE on the TH promoter", "setting": "[2]", "result": "no significant attenuation"}
    ]}
  ]
}
